Measured values: paper PMC6359675, “Functionalization of the Chalcone Scaffold for the Discovery of Novel Lead Compounds Targeting Fungal Infections” (Molecules, 2019)
Where “and” joins values, the source holds several entries; their conditions need not be identical. Identical values can stand only once. Like-named read-outs stand apart in the source and are kept apart here.

Experiments:
[1] = test system: C. glabrata; experiment: In vitro susceptibility testing, C. glabrata clinical isolate; type: cell-based; details: Nakaseomyces glabratus
Text: (§1) The yeasts included in the present study were Candida albicans ATCC 10231 (American Type Culture Collection) and a collection of yeasts recovered from a variety of clinical specimens, i.e., blood, urine, genital swabs, bronchoalveolar lavage, nail specimens, collected at the Microbiology Unit, St. Orsola Malpighi University Hospital, Bologna, Italy. The clinical strain isolates were identified by standard procedures, including colony morphology on chromogenic agar (CHROMagar Candida medium, Becton Dickinson, Heidelberg, Germany) and confirmed by MALDI Biotyper System using matrix-assisted laser desorption ionization–time of flight mass spectrometry (MALDI-TOF MS, Bruker Daltonik, GmbH, Germany).
(§2) The in vitro antifungal activity of the chalcones was evaluated by a microdilution broth method in accordance with the guidelines provided by the EUCAST Edef 7.3 [22]. Briefly, all strains were cultured on Sabauraud dextrose, then inocula, prepared at 0.5 McFarland, were diluted 1:20 in RPMI-1640 medium (Gibco®, ThermoFisher Scientific Inc., Waltham, MA, USA), containing glucose 2%, 0.3% levo-glutamine buffered to pH 7.0 with 0.165 M 3-(N-morpholino)propanesulfonic acid (MOPS) to yield 1-5 × 10^5 cells/mL. A total of 100 µL of the yeast suspension was inoculated in a 96-well microplate and incubated with 100 µL of serially 2-fold dilution of the compound in the range 200–6.25 µM. The following controls were included: yeast suspensions incubated in RPMI-1640 culture medium (positive growth control), or supplemented with dilutions of DMSO, or fluconazole (Sigma-Aldrich, St. Louis, MO, USA) as a commercial drug. To check the background turbidity of reagents and the sterility of the procedure, dilutions of each compound were incubated in RPMI-1640 culture medium, without yeast inoculum. The inoculated plate was incubated at 37 °C for 24 h, and subsequently the optical density at 630 nm was measured by the Multiskan Ascent microplate reader (Thermo Fisher Scientific Inc.). The effectiveness of the compounds was expressed as percent inhibition relative to the positive growth control when the inhibition […] the 50% at 100 µM. The IC50 value was determined by interpolation of the dose–response curves generated by plotting the percentages of growth inhibition, relative to the drug-free control (set to 100% of growth), as a function of the tested concentrations (on a logarithm scale). Statistical analysis was carried out by the nonlinear regression method using GraphPad Prism version 5.0 for Windows (GraphPad Software, San Diego, CA, USA). All assays were performed in triplicate and at least two independent experiments were carried out.

[2] = test system: R. mucilaginosa; experiment: In vitro susceptibility testing, R. mucilaginosa clinical isolate; type: cell-based
Text: as §1, §2

[3] = test system: C. albicans ATCC 10231; experiment: In vitro susceptibility testing, microdilution broth (EUCAST), C. albicans control strain; type: cell-based, Candida albicans; details: for IC50 / inhibition at 100 µM: Candida albicans; for inhibition at 100 µM: ATCC10231, 24 h; for antifungal activity against C. albicans growth, in words: screen at 100 μM
Protocol: as §2

[4] = test system: C. utilis; experiment: In vitro susceptibility testing, C. utilis clinical isolate; type: cell-based; details: Williopsis jadinii
Text: as §1, §2

[5] = test system: C. albicans; experiment: In vitro susceptibility testing, C. albicans clinical isolate; type: cell-based; details: Candida albicans
Text: as §1, §2

[6] = test system: C. neoformans; experiment: In vitro susceptibility testing, C. neoformans clinical isolate; type: cell-based; details: Cryptococcus neoformans
Text: as §1, §2

[7] = test system: C. parapsilosis; experiment: In vitro susceptibility testing, C. parapsilosis clinical isolate; type: cell-based; details: Lodderomyces parapsilosis
Text: as §1, §2

[8] = test system: S. clavata; experiment: In vitro susceptibility testing, S. clavata clinical isolate; type: cell-based
Text: as §1, §2

[9] = Cytotoxicity test on Vero cells (WST8/CCK-8 cell viability); type: cell-based, African green monkey; details: African green monkey, Vero cells (ATCC CCL-81), Vero cells, mean and 95% confidence interval
Protocol: (§3) African green monkey kidney cells (Vero ATCC CCL-81) were cultured in Eagle’s Minimal Essential Medium (MEM) (Sigma-Aldrich), supplemented with 10% fetal bovine serum (FBS) (Carlo Erba Reagents, Milan, Italy), 100 U/mL penicillin, and 100 µg/mL streptomycin at 37 °C with 5% CO2. For experiments, cells were seeded into 96-well plates at 10^4 cells/well, and incubated at 37 °C for 24 h. Following washes with PBS, cell monolayer was incubated with 100 µL of serially 2-fold dilution of the compound in the range 200–6.25 µM. Both untreated cells and cells incubated with medium containing solvent dilutions were included in each experiment as controls.
(§4) The cell viability was assessed by a WST8-based assay according to the manufacturer’s instructions (CCK-8, Cell Counting Kit-8, Dojindo Molecular Technologies, Rockville, MD, USA). After 72 h of incubation, culture medium was removed from each well, the monolayer was washed with PBS, and 100 µL of fresh medium containing 10 µL of CCK-8 solution were added. Following a 2 h at 37 °C, the absorbance was measured at 450/630 nm; data were calculated as the percentage of the cell viability relative to the untreated controls.

[10] = test system: Vero cells (ATCC CCL-81); experiment: as above; type: cell-based, African green monkey; details: 72 h, up to the highest concentration of 200 μM
Protocol: as §3, §4

[11] = test system: C. tropicalis; experiment: In vitro susceptibility testing, C. tropicalis clinical isolate; type: cell-based; details: Candida tropicalis
Text: as §1, §2

[12] = test system: C. krusei; experiment: In vitro susceptibility testing, C. krusei clinical isolate; type: cell-based; details: Pichia kudriavzevii
Text: as §1, §2

[13] = test system: C. lusitaniae; experiment: In vitro susceptibility testing, C. lusitaniae clinical isolate; type: cell-based; details: Clavispora lusitaniae
Text: as §1, §2

[14] = clinical isolate, read-out: IC50 C. glabrata
[15] = clinical isolate, read-out: IC50 R. mucilaginosa
[16] = ATCC10231, C. albicans ATCC 10231, mean and 95% confidence interval, read-out: IC50
[17] = ATCC10231, C. albicans ATCC 10231, mean and 95% confidence interval, read-out: IC50 [μg/mL]
[18] = clinical isolate, read-out: IC50 C. utilis
[19] = clinical isolate, mean and 95% confidence interval, read-out: IC50 C. albicans
[20] = clinical isolate, read-out: IC50 C. neoformans
[21] = clinical isolate, read-out: IC50 C. parapsilosis
[22] = clinical isolate, read-out: IC50 S. clavata
[23] = clinical isolate, read-out: IC50 C. tropicalis
[24] = clinical isolate, read-out: IC50 C. krusei
[25] = clinical isolate, read-out: IC50 C. lusitaniae

Row | SMILES | IC50 [1, 14] | IC50 [2, 15] | IC50 [3, 16] | IC50 [3, 17] | IC50 [4, 18] | IC50 [5, 19] | IC50 [6, 20] | IC50 [7, 21] | IC50 [8, 22] | IC50 [11, 23] | IC50 [12, 24] | IC50 [13, 25] | melting point | inhibition at 100 µM ([3]; C. albicans ATCC 10231) | CC50 at 72 h ([9]; read-out: CC50) | CC50 at 72 h ([9]; read-out: CC50 [μg/mL]) | toxicity on Vero cells, in words [10] | antifungal activity against C. albicans growth, in words ([3]; C. albicans ATCC 10231) | also measured
1 | O=C(/C=C/c1ccc(F)cc1)c1cc(Cl)ccc1O [Compound 4, (E)-1-(5-Chloro-2-hydroxyphenyl)-3-(4-fluorophenyl)prop-2-en-1-one] | 200 µM and 55.3 µg/mL | 81.8 µM and 22.6 µg/mL | 48.9 µM | 13.5 µg/mL | 96.7 µM and 26.8 µg/mL | 69.6 µM and 19.3 µg/mL | 27.1 µM and 7.5 µg/mL | > 200 µM and > 55.3 µg/mL | 200 µM and 55.3 µg/mL | 200 µM and 55.3 µg/mL | 200 µM and 55.3 µg/mL | 34.6 µM and 9.6 µg/mL |  | 65.6 ± 3.3% | > 200 µM | > 55.3 µg/mL | did not display any toxicity |  | 
2 | O=C(/C=C/c1cccc(F)c1)c1cc(Cl)ccc1O [Compound 3, (E)-1-(5-Chloro-2-hydroxyphenyl)-3-(3-fluorophenyl)prop-2-en-1-one] | > 200 µM and > 55.3 µg/mL | > 200 µM and > 55.3 µg/mL | 57.7 µM | 16 µg/mL | 100 µM and 27.7 µg/mL | 100 µM and 27.7 µg/mL | 35.2 µM and 9.7 µg/mL | 41.5 µM and 11.5 µg/mL | 37.2 µM and 10.3 µg/mL | > 200 µM and > 55.3 µg/mL | > 200 µM and > 55.3 µg/mL | 38.5 µM and 10.7 µg/mL |  | 64.8 ± 1.5% | 152 µM | 42 µg/mL |  |  | 
3 | OC(Cn1cncn1)(Cn1cncn1)c1ccc(F)cc1F [FLC, fluconazole, reference compound] | 14.4 µM and 4.4 µg/mL | 1.6 mM and 491 µg/mL | 0.25 µM | 0.07 µg/mL | 1.56 µM and 0.5 µg/mL | 420 nM and 0.13 µg/mL | 256 µM and 78.4 µg/mL | 37 nM and 0.01 µg/mL | 40 nM and 0.012 µg/mL | 0.4 µM | 64.6 µM and 19.8 µg/mL | 50 nM and 0.015 µg/mL |  |  |  |  |  |  | 
4 | CC(C)=CCOc1ccc(C(=O)/C=C/c2cccnc2)c(O)c1 [Compound 20] |  |  | 16.8 µM | 4.9 µg/mL |  |  |  |  |  |  |  |  |  | 81.5 ± 4.7% | 54.3 µM | 15.9 µg/mL | moderately toxic |  | 
5 | O=C(/C=C/c1ccccc1)c1cc(Cl)ccc1O [Compound 1, (E)-1-(5-Chloro-2-hydroxyphenyl)-3-phenylprop-2-en-1-one] | 200 µM and 51.7 µg/mL | 83.7 µM and 21.7 µg/mL | 52.8 µM | 13.7 µg/mL | 84.5 µM and 21.9 µg/mL | 62.9 µM and 16.3 µg/mL | 26.4 µM and 6.8 µg/mL | 200 µM and 51.7 µg/mL | 200 µM and 51.7 µg/mL | 200 µM and 51.7 µg/mL | 200 µM and 51.7 µg/mL | 100 µM and 25.9 µg/mL |  | 65.2 ± 3.9% | 174 µM | 45 µg/mL |  |  | 
6 | CC(C)=CCOc1ccc(C(=O)/C=C/c2ccc(Cl)cc2Cl)c(O)c1 [Compound 19, (E)-3-(2,4-dichlorophenyl)-1-(2-hydroxy-4-((3-methylbut-2-en-1-yl)oxy)phenyl)prop-2-en-1-one] |  |  |  |  |  |  |  |  |  |  |  |  | 191 to 193 °C | 5.9 ± 5.7% |  |  |  | inactive | 

Continued, in another order:

Row | IC50 [1, 14] | IC50 [2, 15] | IC50 [3, 16] | IC50 [3, 17] | IC50 [4, 18] | IC50 [5, 19] | IC50 [6, 20] | IC50 [7, 21] | IC50 [8, 22] | IC50 [11, 23] | IC50 [12, 24] | IC50 [13, 25] | melting point | SMILES | inhibition at 100 µM ([3]; C. albicans ATCC 10231) | CC50 at 72 h ([9]; read-out: CC50) | CC50 at 72 h ([9]; read-out: CC50 [μg/mL]) | toxicity on Vero cells, in words [10] | antifungal activity against C. albicans growth, in words ([3]; C. albicans ATCC 10231) | also measured
7 | 37.1 µM and 18.4 µg/mL | 48.5 µM and 21.4 µg/mL | 55.9 µM | 27.7 µg/mL | 29.6 µM and 14.7 µg/mL | 48.1 µM and 23.9 µg/mL | 17.7 µM and 8.8 µg/mL | 36.8 µM and 18.3 µg/mL | 27.9 µM and 13.8 µg/mL | 26.6 µM and 13.2 µg/mL | 63.5 µM and 31.5 µg/mL | 26.5 µM and 13.1 µg/mL |  | COc1cc(OCCN2CCN(c3ccccc3)CC2)ccc1C(=O)/C=C/c1ccc(F)cc1 [Compound 28, (E)-3-(4-Fluorophenyl)-1-(2-methoxy-4-(2-(4-phenylpiperazin-1-yl)ethoxy)phenyl)prop-2-en-1-one] | 99.1 ± 0.7% | > 200 µM | > 99.2 µg/mL | did not display any toxicity |  | IC50 ([1]; Table S1, best-fit, C. glabrata, read-out: IC50): 35.9 µM; IC50 ([2]; Table S2, best-fit, R. mucilaginosa, read-out: IC50): 46.2 µM; IC50 ([3]; ATCC10231, Table S1, variable slope best-fit, C. albicans ATCC 10231, read-out: IC50): 55.6 µM; IC50 ([4]; Table S1, best-fit, C. utilis, read-out: IC50): 29.6 µM; IC50 ([5]; Table S1, best-fit, C. albicans clinical isolate, read-out: IC50): 48.1 µM; IC50 ([6]; Table S2, best-fit, C. neoformans, read-out: IC50): 17.7 µM; IC50 ([7]; Table S1, best-fit, C. parapsilosis, read-out: IC50): 31.3 µM; IC50 ([8]; Table S2, best-fit, S. clavata, read-out: IC50): 28 µM; IC50 ([11]; Table S1, best-fit, C. tropicalis, read-out: IC50): 26.6 µM; IC50 ([12]; Table S1, best-fit, C. krusei, read-out: IC50): 63.6 µM; IC50 ([13]; Table S1, best-fit, C. lusitaniae, read-out: IC50): 26.5 µM
8 |  |  |  |  |  |  |  |  |  |  |  |  | 99 to 101 °C | C#CCOc1ccc(C(=O)/C=C/c2ccncc2)cc1 [Compound 37, (E)-1-(4-(prop-2-yn-1-yloxy)phenyl)-3-(pyridin-4-yl)prop-2-en-1-one] | < 1% |  |  |  | devoid of any effect | 
9 |  |  |  |  |  |  |  |  |  |  |  |  | 91 to 93 °C | CC(C)=CCOc1ccc(C(=O)/C=C/c2ccncc2)cc1 [Compound 33, (E)-1-(4-((3-methylbut-2-en-1-yl)oxy)phenyl)-3-(pyridin-4-yl)prop-2-en-1-one] | < 1% |  |  |  | devoid of any effect | 
10 |  |  |  |  |  |  |  |  |  |  |  |  | 100 to 102 °C | CC(C)=CCOc1ccc(C(=O)/C=C/c2ccc([N+](=O)[O-])cc2)cc1 [Compound 34, (E)-1-(4-((3-methylbut-2-en-1-yl)oxy)phenyl)-3-(4-nitrophenyl)prop-2-en-1-one] | 37.9 ± 5.2% |  |  |  | inactive | 
